The results in this text go back to patent publication US6562828B1, “Amidine compounds” (Japan Tobacco Inc., priority 1998, dated 2003).

Structures can show the parent of a compound that is named as a salt.

The target of the experiment is T1, Human FXa (Homo sapiens, UniProt P00742).
T1 construct: Human FXa [Enzyme research Laboratories (USA)] enzyme; purchased Enzyme Research Laboratories (USA)
In words: Intravenous administration test in mouse, human FXa inhibitory activity in serum. Particulars: ICR mice, i.v., mean ± S.D., n = 3. In kind it is in vivo. The method, then: Intravenous Administration Tests in Mouse
A test compound dissolved in physiological saline was intravenously administered to ICR mice (body weight 20-30 g, 4-6 weeks old) and the activity of the test compound was evaluated based on the human FXa inhibitory activity in serum as an indicator.
At 10, 30, 60, 120 min from the intravenous administration, blood was taken from the eye ground using a hematocrit tube. The blood was centrifuged at 9000 G for 5 min and the obtained serum was used for the determination.
Human FXa inhibitory activity was measured as follows. Human FXa [Enzyme research Laboratories (USA)] enzyme (40 μl, 0.5 U/ml) and a 4-fold diluted plasma sample (40 μl) were incubated in 0.1M Tris-0.2M NaCl buffer (pH 8.4) (40 μl) at 37° C. for 10 min. A synthetic substrate S-2222 (Daiichi Pure Chemical (Tokyo, Japan), 40 μl) adjusted to 0.8 mM was added and the mixture was incubated at 37° C. for 5 min. The reaction was stopped by addition of 60% acetic acid (40 μl) and absorbance at 405 nm was measured by Model 3550 (BIO-RAD). For the control, serum or plasma obtained prior to blood sampling was used for measurement. Human FXa inhibitory activity was calculated as inhibition percentage (%) against control.

By inhibition is commonly meant the relative decrease from the control value, in per cent. Low values mean little suppression, high ones strong suppression.

T1 sequence (P00742 235-488 limits assumed): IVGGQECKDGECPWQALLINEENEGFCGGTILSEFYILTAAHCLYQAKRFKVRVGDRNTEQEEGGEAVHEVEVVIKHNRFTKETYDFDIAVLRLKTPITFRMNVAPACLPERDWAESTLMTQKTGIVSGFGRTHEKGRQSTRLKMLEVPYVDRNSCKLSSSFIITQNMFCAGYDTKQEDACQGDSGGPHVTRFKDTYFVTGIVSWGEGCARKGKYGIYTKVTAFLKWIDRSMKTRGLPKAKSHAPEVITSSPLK
T1 sequence (P00742 41-179 limits assumed): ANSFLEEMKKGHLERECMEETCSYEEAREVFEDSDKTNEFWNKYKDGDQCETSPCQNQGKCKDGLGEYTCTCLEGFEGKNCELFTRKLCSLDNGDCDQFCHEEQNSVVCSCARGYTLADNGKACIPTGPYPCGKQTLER

`CC(=N)N1CCC(Oc2ccc(N(Cc3nc4cc(C(=N)N)ccc4n3CC(=O)N[C@@H](C)c3ccccc3)C(=O)c3ccc(C(=O)O)cc3)cc2)CC1` [Example 17, (S)-4-[N-[5-Amidino-1-(1-phenylethylcarbamoylmethyl)benzimidazole-2-ylmethyl]-N-[4-(1-acetimidoylpiperidin-4-yloxy)phenyl]carbamoyl]benzoic Acid Dihydrochloride] had an inhibition at 0.1 mg/kg (10 minutes) of 31 ± 3%, an inhibition at 0.1 mg/kg (30 minutes) of 10 ± 3%, an inhibition at 0.1 mg/kg (60 minutes) of 0% and an inhibition at 0.1 mg/kg (120 minutes) of 0%. Further, the inhibition at 0.3 mg/kg (10 minutes) was 65 ± 1%, at 0.3 mg/kg the inhibition (30 minutes) was 38 ± 5%, testing at 0.3 mg/kg (60 minutes) gave an inhibition of 16 ± 3% and testing at 0.3 mg/kg (120 minutes) gave an inhibition of 8 ± 4%. Further, the inhibition at 1 mg/kg by setting is: (10 minutes) 70 ± 1%; (30 minutes) 69 ± 2%; (60 minutes) 41 ± 10%; (120 minutes) 1 ± 3%.
